Measurements taken from patent US6784201B2, “Benzothiepines having activity as inhibitors of ileal bile acid transport and taurocholate uptake” (G.D. Searle & Company, priority 1994, dated 2004).
Where two headings read alike, the source gives them in different places.

Experiments:
[1] = system: Hepatic Cholesterol; assay: Hepatic cholesterol concentration, cholesterol-fed hamsters; format: in vivo, hamster; conditions: 0.2% Cpd. No. 25, mean (SEM)
Protocol: Measurement of Hepatic Cholesterol Concentration (Hepatic CHOL)
Liver tissue was weighed and homogenized in chloroform:methanol (2:1). After homogenization and centrifugation the supernatant was separated and dried under nitrogen. The residue was dissolved in isopropanol and the cholesterol content was measured enzymatically, using a combination of cholesterol oxidase and peroxidase, as described by Allain, C. A., et al. (1974) Clin. Chem. 20, 470.

[2] = Rat Alzet minipump model: body, liver and fecal weight; format: in vivo; conditions: 20 MPL/DAY, mean (SEM)
[3] = system: Hepatic Cholesterol 7-α-Hydroxylase; assay: Hepatic cholesterol 7-α-hydroxylase activity, rat Alzet minipump model; format: in vivo; conditions: 20 MPL/DAY, mean (SEM)
Protocol: (§1) Measurement of Hepatic Cholesterol 7-α-Hydroxylase Activity (7a-OHase)
(§2) Hepatic microsomes were prepared by homogenizing liver samples in a phosphate/sucrose buffer, followed by centrifugal separation. The final pelleted material was resuspended in buffer and an aliquot was assayed for cholesterol 7-α-hydroxylase activity by incubating for 5 minutes at 37° C. in the presence of NADPH. Following extraction into petroleum ether, the organic solvent was evaporated and the residue was dissolved in acetonitrile/methanol. The enzymatic product was separated by injecting an aliquot of the extract onto a C18 reversed phase HPLC column and quantitating the eluted material using UV detection at 240 nm. (Reference: Horton, J. D., et al. (1994) J. Clin. Invest. 93, 2084).

[4] = biological target: T1, human IBAT (Homo sapiens, UniProt Q12908); assay: In vitro assay of IBAT-mediated uptake of [14C]-taurocholate (TC) in H14 cells; format: cell-based
T1 construct: expressed in transfected cells; host or cells: Baby hamster kidney (BHK) cells, clone H14
T1 sequence (Q12908 1-348): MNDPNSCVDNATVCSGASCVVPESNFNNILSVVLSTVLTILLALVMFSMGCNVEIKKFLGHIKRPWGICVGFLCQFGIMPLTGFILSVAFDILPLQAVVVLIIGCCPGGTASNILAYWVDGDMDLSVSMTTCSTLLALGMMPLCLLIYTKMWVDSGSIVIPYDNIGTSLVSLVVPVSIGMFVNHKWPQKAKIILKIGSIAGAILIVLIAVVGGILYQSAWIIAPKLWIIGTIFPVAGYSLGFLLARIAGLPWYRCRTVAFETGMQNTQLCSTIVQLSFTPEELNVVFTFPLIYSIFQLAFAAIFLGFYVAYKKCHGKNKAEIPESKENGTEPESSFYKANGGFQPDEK
How it was run: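 BHK cells stably expressing human IBAT (H14) were incubated 2 h at 37° C with compound and 3 μM final [14C]-taurocholate in DMEM (4.5 g/L glucose) plus 0.2% fatty acid-free BSA. After cold PBS washes, cell-associated radioactivity was measured by scintillation counting.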

[5] = system: H14 cells; assay: In vitro assay of uptake of [14C]-alanine; format: cell-based, hamster; conditions: Mesocricetus auratus; 10 μM
How it was run: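 H14 cells (BHK expressing human IBAT) incubated 2 h at 37 °C with compound and labelled alanine, in the same format as the 3 μM [14C]-taurocholate uptake assay, in DMEM with 0.2% fatty acid-free BSA. After cold PBS washes, cell-associated radioactivity measured by scintillation counting.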

[6] = system: Hepatic Cholesterol 7-α-Hydroxylase; assay: Hepatic cholesterol 7-α-hydroxylase activity, cholesterol-fed hamsters; format: in vivo, hamster; conditions: 0.2% Cpd. No. 25, mean (SEM)
Protocol: as §1, §2

[7] = biological target: ACAT; assay: Acyl-CoA; cholesterol acyl transferase (ACAT), hamster liver microsomes; format: biochemical; conditions: read-out: ACAT (liver) IC(50)
Protocol: Acyl-CoA; Cholesterol Acyl Transferase (ACAT)
Hamster liver and rat intestinal microsomes were prepared from tissue as described previously (Reference: (1980) J. Biol. Chem. 255, 9098) and used as a source of ACAT enzyme. The assay consisted of a 2.0 ml incubation containing 24 μM Oleoyl-CoA (0.05 μCi) in a 50 mM sodium phosphate, 2 mM DTT ph 7.4 buffer containing 0.25% BSA and 200 μg of microsomal protein. The assay was initiated by the addition of oleoyl-CoA. The reaction went for 5 min at 37° C. and was terminated by the addition of 8.0 ml of chloroform/methanol (2:1). […] The chloroform phase was taken to dryness and then spotted on a silica gel 60 TLC plate and developed in hexane/ethyl ether (9:1). The amount of cholesterol ester formed was determined by measuring the amount of radioactivity incorporated into the cholesterol oleate spot on the TLC plate with a Packard instaimager.

[8] = system: Hepatic HMG CoA-Reductase; assay: Hepatic HMG CoA-reductase activity, rat Alzet minipump model; format: in vivo; conditions: 20 MPL/DAY, mean (SEM)
Protocol: Measurement of Hepatic HMG CoA-Reductase Activity (HMG COA)
Hepatic microsomes were prepared by homogenizing liver samples in a phosphate/sucrose buffer, followed by centrifugal separation. The final pelleted material was resuspended in buffer and an aliquot was assayed for HMG CoA reductase activity by incubating for 60 minutes at 37° C. in the presence of ^14C-HMG-CoA (Dupont-NEN). The reaction was stopped by adding 6N HCl followed by centrifugation. An aliquot of the supernatant was separated, by thin-layer chromatography, and the spot corresponding to the enzyme product was scraped off the plate, extracted and radioactivity was determined by scintillation counting. (Reference: Akerlund, J. and Bjorkhem, I. (1990) J. Lipid Res. 31, 2159).

CCCC[C@]1(CC)CS(=O)(=O)c2cc(OC)ccc2[C@@H](c2ccccc2)[C@H]1O [Example 25, (3α,4β,5β) 3-Butyl-3-ethyl-4-hydroxy-8-methoxy-5-phenyl-2,3,4,5-tetrahydrobenzothiepine-1,1-dioxide]
HEPATIC CHOL (mg/g) [1]: 1.9 (0.1) mg/g | LIVER WEIGHT (G) [2]: 14.6 (0.4) G | WEIGHT (G) day 1 [2]: 307 (3) G | WEIGHT (G) day 8 [2]: 310 (4) *A, B G | 7a-OHase (pm/mg/min) [3]: 535.2 (35.7) *A, B pm/mg/min | IC50 ([4]; H14 cells, Table 5, read-out: IC50 uM (In vitro Taurocholate Cell Uptake)): 0.1 µM | IC50 ([4]; Table 6, read-out: TC-uptake (H14 cells) IC(50)): 0.1 µM | inhibition at 10 µM [5]: 4% | 7a-OHase (pm/mg/min.) [6]: 291.0 (6.0) *A pm/mg/min. | IC50 [7]: 8 µM | HMG COA pm/mg/min [8]: 318.0 (40.7) *A, B pm/mg/min
